# In patent US6479531B1, “Gastrin and cholecystokinin receptor ligands” (James Black Foundation Limited, priority 1998, dated 2002):
# Target: T1, CCKB receptor (Mus musculus, UniProt P56481)
# T1 construct: The whole brains from male mice (CD1 22-25 g; Charles River) were removed; from tissue; host or cells: cerebral cortex membranes of male CD1 mice
# T1 sequence (P56481 1-453): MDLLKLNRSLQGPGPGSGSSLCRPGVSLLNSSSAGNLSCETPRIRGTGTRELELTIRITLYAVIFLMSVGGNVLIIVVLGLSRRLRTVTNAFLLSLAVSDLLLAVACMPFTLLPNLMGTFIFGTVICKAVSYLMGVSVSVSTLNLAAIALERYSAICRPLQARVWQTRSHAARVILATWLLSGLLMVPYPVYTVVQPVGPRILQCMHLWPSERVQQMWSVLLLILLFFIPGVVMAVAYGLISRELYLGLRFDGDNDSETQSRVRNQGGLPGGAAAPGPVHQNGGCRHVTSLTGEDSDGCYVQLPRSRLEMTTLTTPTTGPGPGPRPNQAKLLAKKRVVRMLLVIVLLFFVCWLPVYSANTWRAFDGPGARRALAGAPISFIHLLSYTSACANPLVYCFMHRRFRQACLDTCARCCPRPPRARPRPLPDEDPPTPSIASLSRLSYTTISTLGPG
# Assay: CCKB receptor radioligand binding assay in mouse cortical membranes
# Details: [125I]-CCK8(S) 200 pM, 150 min at 21±3°, read-out: CCKB pKi (converted)
# Experimental: The compounds of the examples were tested for binding at the CCKB receptor in mouse cortical membranes by means of a radioligand binding assay. The procedure was as follows:
# The whole brains from male mice (CD1 22-25 g; Charles River) were removed and placed in ice-cold buffer (pH 7.2 @ 21±3°) of the following composition (mM); 10 HEPES, 130 NaCl, 4.7 KCl, 5 MgCl2, 1 EDTA and containing 0.25 gl^−1 bacitracin. The cortex was dissected, weighed and homogenised in 40 ml ice-cold buffer using a Teflon-in-glass homogeniser. The homogenate was centrifuged at 39800 g for 20 min […], the supernatant discarded and the pellet resuspended by homogenisation in fresh buffer. The homogenate was recentrifuged (39800 g, 20 min @ 4°) and the final pellet was resuspended in HEPES buffer to give a tissue concentration of 20 mg ml^−1 (original wet weight).
# The assay was terminated by rapid filtration through pre-soaked Whatman GF/B filters using a Brandell Cell Harvester. The filters were washed (3×3 ml) with ice-cold 50 mM Tris-HCl (pH 7.4 @ 4° C.) and bound radioactivity determined by counting (1 min) in a gamma-counter.
row,Structure (SMILES),Ki
1,"Cc1ccccc1-c1nc(C(=O)N2CCC(C(=O)O)CC2)c(CCC23CC4CC(CC(C4)C2)C3)[nH]1 (racemic) [Example 94, (±)-1-[5-(2-Adamantan-1-yl-ethyl)-2-o-tolyl-1H-imidazole-4-carbonyl]-piperidine-4-carboxylic Acid]",5370 nM
2,"O=C(O)c1cc(NC(=O)c2nc(-c3ccc[nH]3)[nH]c2CC2CCCCCC2)cc(C(=O)O)c1 [Example 33, 5-[(5-Cycloheptylmethyl-2-(1H-pyrrol-2-yl)-1H-imidazole-4-carbonyl)-amino]-isophthalic Acid]",1860 nM
3,"O=C(Nc1cccc(CO)c1)c1nc(-c2ccccc2)[nH]c1CCC12CC3CC(CC(C3)C1)C2 [Example 48, 5-(2-Adamantan-1-yl-ethyl)-2-phenyl-1H-imidazole-4-carboxylic Acid (3-hydroxymethyl-phenyl)-amide]",269 nM
4,"Cc1ccccc1-c1nc(C(=O)Nc2cccc(C(=O)O)c2)c(CCC23CC4CC(CC(C4)C2)C3)o1 [Example 120, 3-{[5-(2-Adamanatan-1-yl-ethyl)-2-o-tolyl-oxazole-4-carbonyl]-amino}-benzoic Acid]",1550 nM
5,O=C(Nc1cccc(-c2nnn[nH]2)c1)c1nc(-c2ccccc2)[nH]c1CCC12CC3CC(CC(C3)C1)C2 [Example 49],182 nM
6,"O=C(O)CCNC(=O)c1nc(-c2ccccc2F)[nH]c1CCC12CC3CC(CC(C3)C1)C2 [Example 52, 3-{[5-(2-Adamantan-1-yl-ethyl)-2-(2-fluoro-phenyl)-1H-imidazole-4-carbonyl]-amino}-propionic Acid]",2570 nM
7,"O=C(Nc1cccc(-c2nnn[nH]2)c1)c1cc(-c2ccc3ccccc3c2)[nH]c1CC1CCCCCC1 [Example 16, 2-Cycloheptylmethyl-5-naphthalen-2-yl-1H-pyrrole-3-carboxylic Acid [3-(1H-tetrazol-5-yl)-phenyl]-amide]",724 nM
8,"O=C(O)c1cccc(NC(=O)c2cc(-c3ccccc3)[nH]c2CCC23CC4CC(CC(C4)C2)C3)c1 [Example 19, 3-{[2-(2-Adamantan-1-yl-ethyl)-5-phenyl-1H-pyrrole-3-carbonyl]-amino}-benzoic Acid]",447 nM
9,"Cc1cc(NC(=O)c2nc(-c3ccccc3C)[nH]c2CCC23CC4CC(CC(C4)C2)C3)cc(C(=O)O)c1 [Example 247, 3-{[5-(2-Adamantan-1-yl-ethyl)-2-o-tolyl-1H-imidazole-4-carbonyl]-amino}-5-methyl-benzoic Acid]",302 nM
10,"Cc1ccc(NC(=O)c2nc(-c3c(Cl)cccc3Cl)[nH]c2CCC23CC4CC(CC(C4)C2)C3)cc1C(=O)O [Example 149, 5-{[5-(2-Adamantan-1-yl-ethyl)-2-(2,6-dichlorophenyl)-1H-imidazole-4-carbonyl]-amino}-2-methyl-benzoic Acid]",5.37 nM
11,"O=C(O)c1cc(NC(=O)c2cc(-c3ccccc3)[nH]c2CCC23CC4CC(CC(C4)C2)C3)cc(C(=O)O)c1 [Example 17, 5-{[2-(2-Adamantan-1-yl-ethyl)-5-phenyl-1H-pyrrole-3-carbonyl]-amino}-isophthalic Acid]",209 nM
12,"O=C(O)c1cccc(NC(=O)c2nc(-c3ccc(Cl)c(Cl)c3)[nH]c2CCC23CC4CC(CC(C4)C2)C3)c1 [Example 68, 3-{[5-(2-Adamantan-1-yl-ethyl)-2-(3,4-dichloro-phenyl)-1H-imidazole-4-carbonyl]-amino}-benzoic Acid]",468 nM
13,"Cc1ccccc1-c1cc(C(=O)Nc2cccc(C(=O)O)c2)c(CCC23CC4CC(CC(C4)C2)C3)[nH]1 [Example 123, 3-{[2-(2-Adamantan-1-yl-ethyl)-5-o-tolyl-1H-pyrrole-3-carbonyl]-amino}-benzoic Acid]",204 nM
14,"CN(C)c1ccccc1-c1nc(C(=O)Nc2cccc(C(=O)O)c2)c(CCC23CC4CC(CC(C4)C2)C3)[nH]1 [Example 70, 3-{[5-(2-Adamantan-1-yl-ethyl)-2-(2-dimethylamino-phenyl)-1H-imidazole-4-carbonyl]-amino}-benzoic Acid]",245 nM
15,"O=C(O)c1ccccc1NC(=O)c1cc(-c2ccccc2)[nH]c1CC12CC3CC(CC(C3)C1)C2 [Example 6, 2-[(2-Adamantan-1-ylmethyl-5-phenyl-1H-pyrrole-3-carbonyl)-amino]-benzoic Acid]",832 nM
16,"O=C(O)c1cc(NC(=O)c2[nH]c(-c3ccc4[nH]ccc4c3)nc2CC2CCCCCC2)cc(C(=O)O)c1 [Example 30, 5-[(5-Cycloheptylmethyl-2-(1H-indol-5-yl)-1H-imidazole-4-carbonyl)-amino]-isophthalic Acid]",1070 nM
17,"O=C(Nc1cc(-c2nnn[nH]2)cc(-c2nnn[nH]2)c1)c1cc(-c2ccccc2)[nH]c1CCC12CC3CC(CC(C3)C1)C2 [Example 18, 2-(2-Adamantan-1-yl-ethyl)-5-phenyl-1H-pyrrole-3-carboxylic Acid [3,5-bis-(1H-tetrazol-5-yl)-phenyl]-amide]",229 nM
18,"O=C(O)c1cccc(NC(=O)c2nc(-c3cccc4ccccc34)[nH]c2CCC23CC4CC(CC(C4)C2)C3)c1 [Example 145, 3-{[5-(2-Adamantan-1-yl-ethyl)-2-naphthalen-1-yl-1H-imidazole-4-carbonyl]-amino}-benzoic Acid]",263 nM
19,"Cc1ccccc1-c1nc(C(=O)Nc2cccc(S(=O)(=O)NC(=O)c3ccccc3)c2)c(CCC23CC4CC(CC(C4)C2)C3)[nH]1 [Example 100, 5-(2-Adamantan-1-yl-ethyl)-2-o-tolyl-1H-imidazole-4-carboxylic Acid (3-benzoylsulfamoyl-phenyl)-amide]",117 nM
20,"Cc1ccccc1-c1nc(CCc2cccc(C(=O)O)c2)c(C(=O)NCC23CC4CC(CC(C4)C2)C3)[nH]1 [Example 119, 3-{2-[5-(Adamantan-1-ylmethylcarbamoyl)-2-o-tolyl-1H-imidazol-4-yl]-ethyl}-benzoic Acid]",282 nM
21,"Cc1ccccc1-c1nc(C(=O)Nc2cccc(OCC(=O)O)c2)c(CCC23CC4CC(CC(C4)C2)C3)[nH]1 [Example 98, (3-{[5-(2-Adamantan-1-yl-ethyl)-2-o-tolyl-1H-imidazole-4-carbonyl]-amino}-phenoxy)-acetic Acid]",25.1 nM
22,"O=C(O)c1cc(NC(=O)c2ncn(Cc3ccccc3)c2CC2CCCCCC2)cc(C(=O)O)c1 [Example 36, 5-[(1-Benzyl-5-cycloheptylmethyl-1H-imidazole-4-carbonyl)-amino]-isophthalic Acid]",3160 nM
23,"O=C(O)Cc1cccc(NC(=O)c2nc(-c3ccccc3)[nH]c2CCC23CC4CC(CC(C4)C2)C3)c1 [Example 82, (3-{[5-(2-Adamantan-1-yl-ethyl)-2-phenyl-1H-imidazole-4-carbonyl]-amino}-phenyl)-acetic Acid]",13.2 nM
24,"O=C(O)c1cccc(CNC(=O)c2nc(-c3ccccc3)[nH]c2CCC23CC4CC(CC(C4)C2)C3)c1 [Example 85, 3-({[5-(2-Adamantan-1-yl-ethyl)-2-phenyl-1H-imidazole-4-carbonyl]-amino}-methyl)-benzoic Acid]",479 nM
25,"O=C(O)c1cccc(NC(=O)c2nc[nH]c2CCC23CC4CC(CC(C4)C2)C3)c1 [Example 77, 3-{[5-(2-Adamantan-1-yl-ethyl)-1H-imidazole-4-carbonyl]-amino}-benzoic Acid]",10000 nM
26,O=C(Nc1cccc(-c2nnn[nH]2)c1)c1nc(C2CCCCC2)[nH]c1CCC12CC3CC(CC(C3)C1)C2 [Example 130],9.55 nM
